Patent publication EP0370436A2, “Novel benzothiazole and benzimidazole derivatives and antiulcer agent containing the same” (MEIJI SEIKA KAISHA LTD., priority 1988, dated 1990)
Marks after values point to notes of the source that are not given here.

Legend:
Type in all cases: in vivo
male Wister rats = test: Submerged restraint stress ulcer test; settings: Rattus norvegicus, oral, once, 30 mg/5 ml/kg body weight in 0.5% CMC, 1 h before 6 h water immersion restraint stress, read-out: Ulceration inhibitory ratio (%)
Procedure: A test compound as shown in Table 1 was suspended in 0.5% carboxymethylcellulose (CMC) and orally administered once to male Wister rats aged 11 weeks, which had been fasted for 18 hours, at a dose of 30 mg/5 ml/kg body weight. Similarly, 5 ml of 0.5% CMC was administered to a control group. One hour after the administration of the test compound, the rats were kept in restraining gages and immersed in water at 20 to 22°C up to the chest. Then, these animals were allowed to stand as such for six hours so as to load a stress. After pulling up from the water, each animal was sacrificed by vertebral cervical dislocation and the stomach was taken out. 5 ml of a 5% aqueous solution of formaldehyde was injected into the stomach and the stomach was immersed in said solution for 30 minutes for fixation. The specimen thus fixed was cut along the curvatura ventriculi major and the major axis of the formed ulcer was measured with a slide calipers (mm). The sum of the major axes of the total ulcers was made an ulcer index.
The ulceration inhibitory ratio was calculated according to the following equation: [formula]

male Donryu rats [1] = test: Aspirin-induced ulcer test; settings: oral, 30 mg/5 ml/kg body weight, 1 h before Aspirin 300 mg/5 ml/kg oral, sacrificed after four hours
Procedure: A test compound suspended in 0.5% carboxymethylcellulose orally administered to male Donryu rats, which had been fasted for 24 hours, at a dose of 30 mg/5 ml/kg body weight. Similarly, 5 ml of 0.5% CMC was administered to a control group. One hour after the administration of the test compound, Aspirin suspended in 0.5% CMC was orally administered to the rats at a dose of 300 mg/5 ml/kg body weight. After four hours, each animal was sacrificed and the stomach was taken out and treated with an aqueous solution of formaldehyde to determine the ulceration inhibitory ratio in the same manner as in the submerged restrain stress ulcer test.

male Donryu rats [2] = test: Ethanol-induced ulcer test; settings: oral, 50 mg/5 ml/kg body weight, 1 h before 100% ethanol 5 ml/kg oral, sacrificed after one hour
Procedure: A compound obtained in Example 2 was suspended in 0.5% CMC and orally administered to male Donryu rats, which had been fasted for 48 hours and abstained from water for 24 hours, at a dose of […]. Similarly, 5 ml of 0.5% CMC was administered to a control group. One hour after the administration of the test compound, 100% ethanol was orally administered to the rats at a dose of 5 ml/kg body weight. After one hour, each animal was sacrificed and the stomach was taken out and treated in the above-mentioned manner. Then, erosion formation in the stomach was observed.
As a result, in a control group to which 0.5% CMC was given alone, erosion was formed at a frequency of almost 100%. In contrast thereto, in a test group to which the test compound was administered at a dose of 50 mg/5 ml/kg body weight, erosion formation was inhibited at a frequency of almost 100%. 5. Acute toxicity

male ICR mice = test: Acute toxicity; settings: oral, once, 1,000 mg/10 ml/kg body weight in 0.5% CMC; three male ICR mice; observed for seven days
Source text: A compound prepared in Example 2 was suspended in 0.5% CMC to give a predetermined concentration. Then, three male ICR mice aged 5 weeks were forced to orally take the above suspension once.

male Donryu rats [3] = test: Histamine-induced ulcer test; settings: oral, once, 30 mg/5 ml/kg, 1 h before histamine dihydrochloride 200 mg/5 ml/kg i.p., sacrificed after five hours
Procedure: A compound obtained in Example 2 was suspended in 0.5% CMC and orally administered once to male Donryu rats, which had been fasted for 24 hours, at a dose of 30 mg/5 ml/kg. Similarly, 5 ml of 0.5% CMC was administered to a control group. One hour after the administration of the test compound, a solution of histamine dihydrochloride in a physiological saline solution was intraperitoneally administered to the rats at a dose of 200 mg/5 ml/kg. After five hours, each animal was sacrificed and the stomach was taken out and treated with an aqueous solution of formaldehyde to determine the ulceration inhibitory ratio in the same manner as in the above-described submerged restrain stress ulcer test. As a result, the ulceration inhibitory ratio was 50%.

SMILES | inhibition in vivo at 30 mg/kg (male Wister rats) [%] | further results
CCOCCSc1nc2cc(Cl)ccc2s1 [Example 1, 5-Chloro-2-[(2-ethoxyethyl)thio]benzothiazole] | 57 | Ulceration inhibitory ratio (%) (male Donryu rats [1]): 21.3%
CCOCC[S+]([O-])c1nc2cc(Cl)ccc2s1 (stereo not shown) [Example 2, 5-Chloro-2-[(2-ethoxyethyl)sulfinyl]benzothiazole] | 93 | erosion formation was inhibited at a frequency of (male Donryu rats [2]): ~100%; acute toxicity (death of animals) (male ICR mice): no animal died; Ulceration inhibitory ratio (%) (male Donryu rats [1]): 85* %; ulceration inhibitory ratio (male Donryu rats [3]): 50%
CCOCCS(=O)(=O)c1nc2cc(Cl)ccc2s1 [Example 3, 5-Chloro-2-[(2-ethoxyethyl)sulfonyl]benzothiazole] | 35.3 | 
CCOCC[S+]([O-])c1nc2ccccc2s1 (stereo not shown) [Example 4, 2-[(2-Ethoxyethyl)sulfinyl]benzothiazole] | 59.9 | 
[O-][S+](CCO)c1nc2cc(Cl)ccc2s1 (stereo not shown) [Example 9, 5-Chloro-2-[(2-hydroxyethyl)sulfinyl]benzothiazole] | 58.5 | 
[O-][S+](CCOCCOCCO)c1nc2cc(Cl)ccc2s1 (stereo not shown) [Example 11, 5-Chloro-2-[{2-(2-hydroxyethoxy)ethoxy}ethylsulfinyl]benzothiazole] | 63.5 | 
CCOCC[S+]([O-])c1nc2ccccc2[nH]1 (stereo not shown) [Example 17, 2-[(2-Ethoxyethyl)sulfinyl]benzimidazole] | 73.6 | 
COc1ccc2[nH]c([S+]([O-])Cc3ncc(C)c(OC)c3C)nc2c1 (stereo not shown) [omeprazole, reference compound] | 99 | 
